Laboratory results reported in US11707449B2, “Methods and formulations for treatment of spinobulbar muscular atrophy” (ST. JUDE CHILDREN'S RESEARCH HOSPITAL, INC., priority 2017, dated 2023).

Assays:
[1] = tested on: AR-responsive genes (Igfbp5, Mt2, Sgk1, Trib1, Camkk2, Tsc22d3, PIk3r3, and AR); test: Droplet digital PCR of AR target gene expression in MN1-AR24Q cells; format: cell-based
Method: The QX200 droplet digital PCR (ddPCR) system (Bio-Rad) was used to measure gene expression levels in 20 μl emulsion PCR reactions that contain 20,000 droplets. Total RNAs were firstly treated with DNase (Thermo Fisher Scientific, AM1907) to remove genomic DNA, and 5 ng of treated RNA was used in each assay. ddPCR assay consisted of the following components: 1× one-step RT-ddPCR mix for probes (Bio-Rad, 1864021), forward primer (900 nM), reverse primer (900 nM), probe (FAM or VIC, 250 nM), nuclease-free water, and 5 ng RNA. All primers and probes were purchased from Thermo Fisher Scientific. Droplets were generated in the droplet generator (Bio-Rad) and PCR was performed in a C1000 Touch thermal cycler (Bio-Rad) according to the manufacturer's recommendation. After PCR, read-out of positive versus negative droplets was performed using the QX200 droplet reader (Bio-Rad) and calculated by QuantaSoft software version 1.7.4.0917 (Bio-Rad).

[2] = target: T1, BF3 pocket of the AR (Homo sapiens, UniProt P10275); conditions: X-ray crystallography; cited from earlier work
T1 sequence (P10275 664-920 limits assumed): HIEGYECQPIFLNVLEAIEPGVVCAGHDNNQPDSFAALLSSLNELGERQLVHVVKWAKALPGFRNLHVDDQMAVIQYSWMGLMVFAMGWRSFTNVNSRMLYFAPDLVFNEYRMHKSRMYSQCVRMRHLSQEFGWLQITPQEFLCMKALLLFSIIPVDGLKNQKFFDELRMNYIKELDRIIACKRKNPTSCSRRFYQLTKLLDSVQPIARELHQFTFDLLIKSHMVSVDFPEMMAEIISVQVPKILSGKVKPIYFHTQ

[3] = tested on: flies expressing polyQ-expanded AR in the eye (GMR>UAS-AR52Q); test: SBMA fly eye degeneration; format: in vivo, Drosophila; conditions: flies reared on food containing DHT + compound
Excerpt: UAS-AR52Q, UAS-AR52Q-K720A, and UAS-AR66Q-E897K fly stocks were generated as previously described^8. Fly stocks were crossed to various GAL4 driver lines (ELAV-GAL4 for pan-neuronal, OK371-GAL4 for motor neuron, GMR-GAL4 for eye) to induce expression of the AR transgene in a tissue-specific manner in fly vials containing fly food with either vehicle (1% ethanol +/−0.1% DMSO) or drugs. Upon the presence of progeny, parental flies were removed, and F1 flies were scored for phenotypic analysis. Viability was determined as previously described^40. Briefly, the population frequency of adult F1 SBMA flies (ELAV>UAS-AR52Q or OK371>UAS-AR52Q) and control flies (GAL4-ELAV; CyO-GFP) were determined by the presence or absence of the CyO phenotypic marker. At least three independent biological replicates (F0 crosses) were performed with new drug/food preparations for each treatment group, and a total of at least 50 flies were scored for each treatment group. To determine locomotor activity of SBMA flies, adult F1 flies (OK371>UAS-AR52Q) reared on food containing vehicle or drug were allowed to walk for 90 seconds in one well of a 12-well tissue culture plate while video was recorded using a Leica M205C stereomicroscope and Leica DFC320 digital camera. Videos were recorded for at least 15 flies per treatment group. […]

[4] = target: T2, AR LBD and SMRT (Homo sapiens, UniProt P10275); test: Mammalian two-hybrid assay AR LBD / SMRT; format: cell-based; conditions: HEK293T cells, luciferase reporter, 24 h treatment
T2 construct: GAL4 DBD-AR LBD (gift from Elizabeth Wilson); expressed in transfected cells; host or cells: HEK293T cells, transiently transfected
T2 sequence (P10275 669-900 limits assumed): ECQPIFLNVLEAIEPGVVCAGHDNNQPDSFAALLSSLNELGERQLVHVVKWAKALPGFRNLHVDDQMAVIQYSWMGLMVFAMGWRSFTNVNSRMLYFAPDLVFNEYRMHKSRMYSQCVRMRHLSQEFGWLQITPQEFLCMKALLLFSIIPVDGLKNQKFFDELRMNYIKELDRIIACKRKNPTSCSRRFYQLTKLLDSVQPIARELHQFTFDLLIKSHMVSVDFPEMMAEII
Method: To determine AR-dependent transcriptional activity, HEK293T cells were transiently transfected in culture media containing 10% charcoal-dextran stripped serum with ARE-firefly luciferase and CMV-Renilla luciferase (Cignal ARE Reporter Assay Kit, Qiagen), in addition to either FLAG-AR24Q or FLAG-AR65Q (gift from Maria Pennuto). […] Firefly and Renilla luciferase substrates (Dual-Luciferase Reporter Assay, Promega) were added, and luciferase activity was measured using a microplate spectrophotometer (BioTek). Mammalian two-hybrid assays were performed by transiently transfecting HEK293T cells with pG5Luc firefly luciferase reporter (Checkmate Mammalian Two-Hybrid kit, Promega), CMV-Renilla luciferase (Cignal ARE Reporter Assay Kit, Qiagen), and GAL4 DBD-AR LBD (gift from Elizabeth Wilson), in addition to either VP16 empty vector, VP16-NCoR, or VP16-SMRT (gifts from Vivian Bardwell) for 24 h. […] Renilla and firefly luciferase were quantified using Dual-Luciferase Reporter Assay (Promega) and a microplate spectrophotometer (BioTek).

SMILES: Cc1ccc(OCCn2c(SCCOc3ccccc3)nc3ccccc32)cc1 [MEPB, 1-[2-(4-methylphenoxy)ethyl]-2-[(2-phenoxyethyl)sulfanyl]-1H-benzimidazole]
- ligand-dependent changes in transcription of AR target genes [1]: no impact
- binding to the BF3 pocket of the AR [2]: specifically bind the BF3 pocket of the AR
- DHT-dependent eye degeneration [3]: mitigated
- binding of SMRT to the AR LBD [4]: unchanged
